Data from ChEMBL document CHEMBL1142186, “Multistep resistance selection and postantibiotic-effect studies of the antipneumococcal activity of LBM415 compared to other agents” (2007).
Converted amounts (≈) assume the structure as drawn.

How the values were obtained:
Streptococcus pneumoniae [1] = assay: Antibacterial activity against clarithromycin resistance selected Streptococcus pneumoniae 3009 after 10 antibiotic-free subcultures by macrodilution method; type: functional
Streptococcus pneumoniae [2] = assay: Antibacterial activity against gatifloxacin resistance selected Streptococcus pneumoniae 3009 after 10 antibiotic-free subcultures by macrodilution method; type: functional
Streptococcus pneumoniae [3] = assay: Antibacterial activity against azithromycin resistance selected Streptococcus pneumoniae 3243 with L22 insertion 93SFRPRA94 mutation after 10 antibiotic-free subcultures by macrodilution method; type: functional
Streptococcus pneumoniae [4] = assay: Antibacterial activity against clarithromycin resistance selected Streptococcus pneumoniae 3676 after 10 antibiotic-free subcultures by macrodilution method; type: functional
Streptococcus pneumoniae [5] = assay: Antibacterial activity against azithromycin resistance selected Streptococcus pneumoniae 2527 after 10 antibiotic-free subcultures by macrodilution method; type: functional
Streptococcus pneumoniae [6] = assay: Antibacterial activity against gatifloxacin resistance selected Streptococcus pneumoniae 37 with GyrA S81Y, GyrB E474K and ParC S79Y mutation after 10 antibiotic-free subcultures by macrodilution method; type: functional
Streptococcus pneumoniae [7] = assay: Antibacterial activity against clarithromycin resistance selected Streptococcus pneumoniae 3665 after 10 antibiotic-free subcultures by macrodilution method; type: functional
Streptococcus pneumoniae [8] = assay: Antibacterial activity against moxifloxacin resistance selected Streptococcus pneumoniae 1076 with ParC S79Y mutation after 10 antibiotic-free subcultures by macrodilution method; type: functional
Streptococcus pneumoniae [9] = assay: Antibacterial activity against azithromycin resistance selected Streptococcus pneumoniae 3243 with L22 insertion 93SFRPRA94 mutation after 33 passages by macrodilution method; type: functional
Streptococcus pneumoniae [10] = assay: Antibacterial activity against moxifloxacin resistance selected Streptococcus pneumoniae 3243 after 10 antibiotic-free subcultures by macrodilution method; type: functional
Streptococcus pneumoniae [11] = assay: Antibacterial activity against clarithromycin resistance selected Streptococcus pneumoniae 3243 with 23S rRNA A2059T mutation after 10 antibiotic-free subcultures by macrodilution method; type: functional
Streptococcus pneumoniae [12] = assay: Antibacterial activity against Streptococcus pneumoniae 2527 by macrodilution method; type: functional
Streptococcus pneumoniae [13] = assay: Antibacterial activity against gatifloxacin resistance selected Streptococcus pneumoniae 1076 with ParC S79Y mutation after 10 antibiotic-free subcultures by macrodilution method; type: functional
Streptococcus pneumoniae [14] = assay: Antibacterial activity against azithromycin resistance selected Streptococcus pneumoniae 2527 after 20 passages by macrodilution method; type: functional
Streptococcus pneumoniae [15] = assay: Antibacterial activity against moxifloxacin resistance selected Streptococcus pneumoniae 24 with GyrA S81Y, GyrB P413S and ParC S79F mutation after 10 antibiotic-free subcultures by macrodilution method; type: functional
Streptococcus pneumoniae [16] = assay: Antibacterial activity against Streptococcus pneumoniae assessed as period of suppression of bacterial growth; type: functional
Streptococcus pneumoniae [17] = assay: Antibacterial activity against Streptococcus pneumoniae 1077 by macrodilution method; type: functional
Streptococcus pneumoniae [18] = assay: Antibacterial activity against moxifloxacin resistance selected Streptococcus pneumoniae 3009 with GyrA S81F and ParC D83N mutation after 10 antibiotic-free subcultures by macrodilution method; type: functional
Streptococcus pneumoniae [19] = assay: Antibacterial activity against azithromycin resistance selected Streptococcus pneumoniae 1077 with 23S rRNA A2058G mutation after 29 passages by macrodilution method; type: functional
Streptococcus pneumoniae [20] = assay: Antibacterial activity against moxifloxacin resistance selected Streptococcus pneumoniae 19 with GyrA S81F mutation after 10 antibiotic-free subcultures by macrodilution method; type: functional
Streptococcus pneumoniae [21] = assay: Antibacterial activity against levofloxacin resistance selected Streptococcus pneumoniae 3009 with GyrA S81Y and ParC S79Y mutation after 10 antibiotic-free subcultures by macrodilution method; type: functional
Streptococcus pneumoniae [22] = assay: Antibacterial activity against moxifloxacin resistance selected Streptococcus pneumoniae 3676 with GyrA E85G, GyrB S478I and ParC S79Y mutation after 10 antibiotic-free subcultures by macrodilution method; type: functional
Streptococcus pneumoniae [23] = assay: Antibacterial activity against azithromycin resistance selected Streptococcus pneumoniae 1077 with 23S rRNA A2058G mutation after 10 antibiotic-free subcultures by macrodilution method; type: functional
Streptococcus pneumoniae [24] = assay: Antibacterial activity against levofloxacin resistance selected Streptococcus pneumoniae 19 with GyrA S81Y and ParC D83Y mutation after 10 antibiotic-free subcultures by macrodilution method; type: functional
Streptococcus pneumoniae [25] = assay: Antibacterial activity against moxifloxacin resistance selected Streptococcus pneumoniae 3665 with GyrA S81Y mutation after 10 antibiotic-free subcultures by macrodilution method; type: functional
Streptococcus pneumoniae [26] = assay: Antibacterial activity against Streptococcus pneumoniae 3243 by macrodilution method; type: functional
Streptococcus pneumoniae [27] = assay: Antibacterial activity against moxifloxacin resistance selected Streptococcus pneumoniae 3676 with GyrA E85G, GyrB S478I and ParC S79Y mutation after 50 passages by macrodilution method; type: functional
Streptococcus pneumoniae [28] = assay: Antibacterial activity against moxifloxacin resistance selected Streptococcus pneumoniae 3665 with GyrA S81Y mutation after 38 passages by macrodilution method; type: functional
Streptococcus pneumoniae [29] = assay: Antibacterial activity against Streptococcus pneumoniae 1076 by macrodilution method; type: functional
Streptococcus pneumoniae [30] = assay: microbe, parasite or virus in culture
Streptococcus pneumoniae [31] = assay: Antibacterial activity against moxifloxacin resistance selected Streptococcus pneumoniae 19 with GyrA S81F mutation after 32 passages by macrodilution method; type: functional
Streptococcus pneumoniae [32] = assay: Antibacterial activity against moxifloxacin resistance selected Streptococcus pneumoniae 1076 with ParC S79Y mutation after 35 passages by macrodilution method; type: functional
Streptococcus pneumoniae [33] = assay: Antibacterial activity against moxifloxacin resistance selected Streptococcus pneumoniae 3009 with GyrA S81F and ParC D83N mutation after 19 passages by macrodilution method; type: functional
Streptococcus pneumoniae [34] = assay: Antibacterial activity against moxifloxacin resistance selected Streptococcus pneumoniae 3243 after 20 passages by macrodilution method; type: functional
Streptococcus pneumoniae [35] = assay: Antibacterial activity against gatifloxacin resistance selected Streptococcus pneumoniae 37 with GyrA S81Y, GyrB E474K and ParC S79Y mutation after 14 passages by macrodilution method; type: functional
Streptococcus pneumoniae [36] = assay: Antibacterial activity against Streptococcus pneumoniae 3009 by macrodilution method; type: functional
Streptococcus pneumoniae [37] = assay: Antibacterial activity against gatifloxacin resistance selected Streptococcus pneumoniae 3009 after 14 passages by macrodilution method; type: functional
Streptococcus pneumoniae [38] = assay: Antibacterial activity against gatifloxacin resistance selected Streptococcus pneumoniae 1076 with ParC S79Y mutation after 20 passages by macrodilution method; type: functional
Streptococcus pneumoniae [39] = assay: Antibacterial activity against Streptococcus pneumoniae 37 by macrodilution method; type: functional

Row | Structure (SMILES) | MIC (Streptococcus pneumoniae [1]) [µg/mL] | MIC (Streptococcus pneumoniae [2]) [µg/mL] | MIC (Streptococcus pneumoniae [3]) [µg/mL] | MIC (Streptococcus pneumoniae [4]) [µg/mL] | MIC (Streptococcus pneumoniae [5]) [µg/mL] | MIC (Streptococcus pneumoniae [6]) [µg/mL] | MIC (Streptococcus pneumoniae [7]) [µg/mL] | MIC (Streptococcus pneumoniae [8]) [µg/mL] | MIC (Streptococcus pneumoniae [10]) [µg/mL] | MIC (Streptococcus pneumoniae [11]) [µg/mL] | MIC (Streptococcus pneumoniae [13]) [µg/mL] | MIC (Streptococcus pneumoniae [15]) [µg/mL] | Post Antibiotic Effe (Streptococcus pneumoniae [16]) [h] | MIC (Streptococcus pneumoniae [18]) [µg/mL] | MIC (Streptococcus pneumoniae [20]) [µg/mL] | MIC (Streptococcus pneumoniae [21]) [µg/mL] | MIC (Streptococcus pneumoniae [22]) [µg/mL] | MIC (Streptococcus pneumoniae [23]) [µg/mL] | MIC (Streptococcus pneumoniae [24]) [µg/mL] | MIC (Streptococcus pneumoniae [25]) [µg/mL] | further results
1 | CC[C@H]1OC(=O)[C@H](C)[C@@H](O[C@H]2C[C@@](C)(OC)[C@@H](O)[C@H](C)O2)[C@H](C)[C@@H](O[C@@H]2O[C@H](C)C[C@H](N(C)C)[C@H]2O)[C@](C)(O)C[C@@H](C)CN(C)[C@H](C)[C@@H](O)[C@]1(C)O [AZITHROMYCIN] | 128 (≈ 171 µM) | > 128 | 0.5 (≈ 0.668 µM) | 16 (≈ 21.4 µM) | 4 (≈ 5.34 µM) | > 128 | 8 (≈ 10.7 µM) | > 128 | 0.016 (≈ 0.0214 µM) | 1 (≈ 1.34 µM) | > 128 | > 128 | 3.1 | > 128 | > 128 | 128 (≈ 171 µM) | 4 (≈ 5.34 µM) | > 64 | > 128 | 8 (≈ 10.7 µM) | MIC (Streptococcus pneumoniae [9]): 0.25 µg/mL (≈ 0.334 µM); MIC (Streptococcus pneumoniae [12]): 0.016 µg/mL (≈ 0.0214 µM); MIC (Streptococcus pneumoniae [14]): 4 µg/mL (≈ 5.34 µM); MIC (Streptococcus pneumoniae [17]): 0.03 µg/mL (≈ 0.0401 µM); MIC (Streptococcus pneumoniae [19]): > 64 µg/mL; MIC (Streptococcus pneumoniae [26]): 0.03 µg/mL (≈ 0.0401 µM)
2 | COc1c(N2C[C@@H]3CCCN[C@@H]3C2)c(F)cc2c(=O)c(C(=O)O)cn(C3CC3)c12 [MOXIFLOXACIN] | – | – | – | – | – | 16 (≈ 39.9 µM) | – | – | – | – | – | – | 1.5 | – | 2 (≈ 4.98 µM) | 4 (≈ 9.96 µM) | 8 (≈ 19.9 µM) | – | – | – | MIC (Streptococcus pneumoniae [27]): 8 µg/mL (≈ 19.9 µM); MIC (Streptococcus pneumoniae [28]): 1 µg/mL (≈ 2.49 µM); MIC (Streptococcus pneumoniae [29]): 1 µg/mL (≈ 2.49 µM); MIC (Streptococcus pneumoniae [30]): 4 µg/mL (≈ 9.96 µM); MIC (Streptococcus pneumoniae [31]): 1 µg/mL (≈ 2.49 µM); MIC (Streptococcus pneumoniae [32]): 8 µg/mL (≈ 19.9 µM); MIC (Streptococcus pneumoniae [33]): 2 µg/mL (≈ 4.98 µM); MIC (Streptococcus pneumoniae [34]): 1 µg/mL (≈ 2.49 µM)
3 | COc1c(N2CCNC(C)C2)c(F)cc2c(=O)c(C(=O)O)cn(C3CC3)c12 (stereo not given) [GATIFLOXACIN] | 0.25 (≈ 0.666 µM) | 8 (≈ 21.3 µM) | 0.25 (≈ 0.666 µM) | 0.5 (≈ 1.33 µM) | 8 (≈ 21.3 µM) | 16 (≈ 42.6 µM) | 0.25 (≈ 0.666 µM) | 8 (≈ 21.3 µM) | 1 (≈ 2.66 µM) | 0.25 (≈ 0.666 µM) | 8 (≈ 21.3 µM) | 4 (≈ 10.7 µM) | 1.7 | 2 (≈ 5.33 µM) | 0.5 (≈ 1.33 µM) | 8 (≈ 21.3 µM) | 2 (≈ 5.33 µM) | 8 (≈ 21.3 µM) | 4 (≈ 10.7 µM) | 0.5 (≈ 1.33 µM) | MIC (Streptococcus pneumoniae [29]): 2 µg/mL (≈ 5.33 µM); MIC (Streptococcus pneumoniae [35]): 16 µg/mL (≈ 42.6 µM); MIC (Streptococcus pneumoniae [36]): 1 µg/mL (≈ 2.66 µM); MIC (Streptococcus pneumoniae [37]): 16 µg/mL (≈ 42.6 µM); MIC (Streptococcus pneumoniae [38]): 16 µg/mL (≈ 42.6 µM); MIC (Streptococcus pneumoniae [39]): 1 µg/mL (≈ 2.66 µM)
